Patent US10640748B2, “Oligodendroglial cell culturing methods and in methods for treating neurodegenerative disorders by using thyroid hormones or analogues” (NeuOrphan Pty Ltd, priority 2014, dated 2020)
Entries after “also recorded” stand apart in the source; their conditions may differ.

Tests used:
[1] = tested on: Nkx2.1-GFP+ sorted cells at stage VI; assay: qRT-PCR gene expression in Nkx2.1-GFP+ sorted cells at stage VI treated with T3, DITPA or T3+DITPA; type: cell-based, human
Protocol: RNA was isolated from cells by using RNeasy Mini Kit (Qiagen) according to the manufacturer's instruction and treated with DNase-I to remove genomic DNA. The concentrations of total RNA were measured by Nanodrop ND-1000 spectrophotometer v3.7 (Thermo Specific) and complementary DNA (cDNA) was synthesized from 1 μg of total RNA using High-Capacity cDNA Reverse Transcription Kit (Applied Biosystems) according to the manufacturer's instructions. Real-Time Quantitative Reverse Transcription Polymerase Chain Reaction (qRT-PCR) was performed with 5-20 ng of cDNA template, 2× Taqman Gene expression master mix and 20× Taqman probes (Life technologies) on ABI Prism 7900HT Sequence detection system (Applied Biosystems). Gapdh served as an endogenous standard control. The qRT-PCR thermo-cycling reaction was 1 cycle at 50° C. for 2 minutes, 1 cycle at 95° C. for 10 minutes and 40 cycles of 95° C. for 15 seconds, then 60° C. for 1 minute. The threshold cycle (CT) value, which represents the cycle at which the first PCR product is detected, was measured in triplicate and normalized against the endogenous control, GAPDH, to determine the ΔCT value. Then the ΔCT values of GFP-positive cells were then standardized against the ΔCT values of undifferentiated hESCs, derived as relative mRNA expression (ΔΔCT).
Bar graphs illustrating the qRT-PCR analyses in FIG. 2, 3, S1-3 representing the log2 of the average fold-change in gene expression compared directly to the undifferentiated Stage I hESC or T3-treated cells at day 7 in FIG. 5 and S5.

[2] = tested on: Pre-OLs from Nkx2.1-GFP+ sorted cultures at stage VI, day 21; assay: Pharmacological blockade of MCT8 with Bosutinib, DAPI+ dead cells by flow cytometry; type: cell-based, human; conditions: co-administration of 10 ng/mL DITPA with Bosutinib, 48 hours
Protocol: Pre-OLs from Nkx2.1-GFP+ sorted cultures at stage VI, day 21 were treated with the pharmacological inhibitor of MCT8, bosutinib (LC Laboratories, B-1788, reconstituted in dimethyl sulfoxide, [DMSO]) at different concentrations (1 ng/mL, 10 ng/mL and 100 ng/mL) with co-administration of 10 ng/mL DITPA. An MTT assay and flow cytometry were then performed on the cells stained for DAPI after 48 hours of treatment, to analyze DAPI+ dead cells.

[3] = tested on: H9-derived hOPCs (Merck/Millipore); assay: Microarray analysis of H9-derived hOPC mixed neural cultures treated with DITPA; type: cell-based, human; conditions: 48 hours
Protocol: H9-derived hOPCs (Merck/Millipore) were differentiated for 4 weeks and the following treatments were administered to the cells for 48 hours: Medium with 0.01% absolute ethanol control; 1 ng/mL DITPA (DITPA 1 ng/mL); 10 ng/mL DITPA (DITPA 10 ng/mL); or 100 ng/mL DITPA (DITPA 100 ng/mL). 1 μg of collected mRNA from each population was hybridized to Human HT-12 v3.0 Gene Expression BeadChip (Illumina) according to the manufacturer's instruction (For detailed procedure see Supplemental Experimental Procedures).
H9-derived commercially available human neural precursors were cultured and differentiated according to the manufacturer's protocol (Human OPC differentiation kit, Millipore). Briefly, undifferentiated cells were maintained on 4% growth factor-reduced Matrigel (BD Biosciences) for a week in manufacturer provided expansion medium then differentiated on poly-L-ornithine (10 μg/mL, Sigma-Aldrich) and mouse laminin (10 μg/mL, Life Technologies) coated plates for 4 weeks in manufacturer provided medium.
Raw signal intensity values were subjected to variance stabilization transformation including background correction, log2 transformation and variance stabilization using the lumiR package of R Bioconductor (Du et al., 2008). Since there were fewer arrays of common genes detected in DITPA 100 ng/mL compared to DITPA 1 ng/mL and 10 ng/mL versus ethanol control, all analyses were performed without DITPA 100 ng/mL. Hierarchical clustering with centroid linkage clustering was performed. ANOVA analyses of normalized probe intensity values were performed in Partek Genomic Suite (Partek). ANOVA was used to calculate the significance of variation in normalized expression values between sample-groups, and fold change of gene expression was calculated as mean ratio. Absolute fold changes of 1.5 or more were defined as differentially expressed. Gene ontology enrichment analysis was performed on the list of differentially expressed probes in Partek.

[4] = cited from earlier work
slc16a2-/- zebrafish = conditions: cited from earlier work
AHDS patients = conditions: cited from earlier work
[5] = compared to T3 treated cultures
[6] = differentiating cultures treated with DITPA
[7] = 1 and 10 ng/mL, vs ethanol control

In the case of `O=C(O)CCc1cc(I)c(Oc2ccc(O)cc2)c(I)c1` [DITPA, 3,5-Diiodothyropropionic acid], the “cdkn1b (p27) expression” value [1, 5] is reported as “up-regulated”, the “tp53 (p53) expression” value [1, 5] is reported as “up-regulated” and the OL differentiation ([1]; compared with T3) is reported as “promotes OL differentiation”. For the same compound, the dio2 expression ([1]; compared with T3 treatment) was “no significant differences”, the dio3 expression ([1]; compared with T3 treatment) was “no significant differences” and the thrb expression ([1]; compared with T3 treatment) was “no significant differences”. For the same compound, the “slc16a2 (MCT8) expression” value ([1]; day 7, compared with T3) was “significant up-regulation”, the “slc16a10 (MCT10) expression” value ([1]; day 7, compared with T3) was “significant up-regulation” and the plp1 expression ([1]; day 21 of treatment, versus T3 alone) was “substantial up-regulation”. The mbp expression [1, 6] was “up-regulation”, the myt1 expression [1, 6] was “up-regulation” and the plp1 expression [1, 6] was “up-regulation”. For the same compound, the olig1 expression ([1]; following DITPA treatment) was “up-regulated”, the olig2 expression ([1]; following DITPA treatment) was “up-regulated” and the sox10 expression ([1]; following DITPA treatment) was “up-regulated”. The “up-regulation of slc16a10” value ([1]; following DITPA treatment) was about 14 fold, the bmp7 expression ([1]; upon DITPA treatment) was “down-regulation” and the “frzb expression (WNT antagonist)” value ([1]; upon DITPA treatment) was “up-regulation”. The jun expression ([1]; upon DITPA treatment) was “down-regulation”, the “sfrp1 expression (WNT antagonist)” value ([1]; upon DITPA treatment) was “up-regulation” and the “sfrp2 expression (WNT antagonist)” value ([1]; upon DITPA treatment) was “up-regulation”. The tgfb3 expression ([1]; upon DITPA treatment) was “down-regulation”, the “tnfrsf2 (encodes DR6) expression” value ([1]; upon DITPA treatment) was “almost negligible up-regulation” and the wnt5a expression ([1]; upon DITPA treatment) was “down-regulation”. For the same compound, the “cell death (DAPI+ dead cells) under Bosutinib MCT8 blockade” value [2] was “significant reduction in cell death; also recorded: DITPA treatment of differentiating OPCs overcomes the cell death initiated by the”, the “ASCL1 expression (oligodendroglial enriched transcription factor)” value [3, 7] was “up-regulation” and the “CRYM (μ-crystallin) expression” value [3, 7] was “down-regulation”. The DIO3OS expression [3, 7] was “up-regulation”, the DIO3 expression [3, 7] was “up-regulation” and the “MYT1 expression (oligodendroglial enriched transcription factor)” value [3, 7] was “up-regulation”. For the same compound, the RARA expression [3, 7] was “up-regulation”, the RARRES3 expression [3, 7] was “down-regulation” and the “astrocyte and neuron enriched transcription factors regulated” value [3, 7] was “minimal”. The thrb expression [3, 7] was “up-regulation”, the commonly regulated genes ([3]; DITPA at 1 ng/mL and 10 ng/mL vs ethanol control) was 3385 and the “up-regulation of metallothionein (MT1A)” value ([3]; upon DITPA treatment) was about 8 fold. The “up-regulation of p53” value ([3]; upon DITPA treatment) was about 2 fold, the “up-regulation of reprimo (RPRM)” value ([3]; upon DITPA treatment) was about 13 fold and the “solubility in water and aqueous solutions” value [4] was “sparingly soluble”. The locomotor behavioral outcomes (slc16a2-/- zebrafish) was “restored”, the myelin deficiencies (slc16a2-/- zebrafish) was “restored” and the hypermetabolism (AHDS patients) was “reduce”. The peripheral hyperthyroidism (AHDS patients) was “normalize”.
